Source: patent US20240417778A1, “Methods for Nucleic Acid Cleavage” (priority 2021, published 2024)
“Also recorded” adds a separate entry of the source.

What was measured:
E. coli ribosome = assay: In vitro degradation of E. coli ribozyme (agarose gel); format: biochemical; conditions: 15 mM to 0.47 mM, 18 hours, 200 μM ribozyme
Procedure: The degradation activity was measured in an in vitro assay, targeting the E. coli ribosome. […] Evaluation was made by agarose gel analysis.

pseudoknot = conditions: relative to MTDB (Park et al., 2011); cited from earlier work
[1] = test system: G4 structure found on 5′UTR of NRAS mRNA; assay: Fluorescence quenching assay; format: binding; conditions: Cy5-tagged oligonucleotide 50 nM, HEPES pH 7.4, 25.0° C.
Procedure: To prepare oligonucleotides for binding studies, oligonucleotides were dissolved at an appropriate buffer to a final concentration of 100 nM, then incubated at 95° C. with shaking for 5 min. Samples were allowed to cool at room temperature for at least 1 h before further dilutions/treatments.
Cy5-tagged oligonucleotide corresponding to G4 structure found on 5′UTR of NRAS mRNA (final concentration 50 nM) were dissolved in 20 mM HEPES pH 7.4 buffer supplemented with KCl (100 mM) and MgCl2 (10 mM) and plated on a 96-well plate. Oligonucleotides were treated with various concentrations of PDS family ligands as indicated, ranging from 5 nM to 10 μM, or a water vehicle control, followed by 30 minute incubation at 4° C. Fluorescence corresponding to Cy5 fluorophore was then measured for each oligonucleotide-small molecule/vehicle control combination using a plate reader (BMG CLARIOstar) at 25.0° C. […] Fluorescence was normalised to a vehicle control and binding curves for each molecule were obtained via a sigmoidal fit by setting the Hill Slope coefficient to 1.
PDS and its derivatives were incubated with a Cy5-functionalised oligomer corresponding to a G-quadruplex in NRAS 5′UTR, a well-established G4 model. As fluorescence quenching is proximity-induced, the signal corresponding to Cy5 is quenched upon PDS binding. […]

SARS-CoV-2 [2] = format: cell-based; conditions: 6 μM for 24 h, added before or after infection, vs vehicle control
[3] = test system: frameshifting in SARS-CoV-2; conditions: Kelly et al., 2020; cited from earlier work
[4] = test system: RNA 69-er with a sequence that corresponds to the coronaviral pseudoknot; format: biochemical; conditions: 1 mM, 3 h incubation, 37° C.
[5] = Solubility in aqueous media
[6] = test system: oligomer corresponding to the coronaviral pseudoknot; conditions: shape of MST binding curve
SARS-CoV-2 [7] = format: in vivo, K18-hACE2 mice; conditions: 10 mg/kg intranasally 1 hour pre- and 3 hours post-infection, day 5, plaque assay, vs vehicle
[8] = test system: RNA extracted from SARS-CoV-2; format: biochemical; conditions: 100 μM, 2 h, 37° C.
SARS-CoV-2 [9] = assay: Virucidal activity on cell free virions; conditions: 6 μM, 1 h at 37° C., 1000 PFU, plaque assay
SARS-CoV-2 [10] = assay: Drug assay of SARS-CoV-2 replication on Vero CCL-81 cells (PCR); format: cell-based; conditions: Vero CCL-81, MOI 0.05, 24 h, added 1 h before or 1 h after infection
[11] = target: perturbed pseudoknot oligonucleotide; assay: Micro-scale thermophoresis (MST), perturbed pseudoknot; format: binding; conditions: FAM-tagged oligonucleotide 50 nM, HEPES pH 7.4, 25.0° C.

chloramphenicol-ethyl-imidazole degrader [18c]
ribosome degradation (E. coli ribosome): no degradation visible

chloramphenicol-6PEG-imidazole degrader [18a]
ribosome degradation (E. coli ribosome): no degradation visible

chloramphenicol-2PEG-imidazole degrader [18b]
ribosome degradation (E. coli ribosome): ribosome degradation could be observed at a concentration of 15 mM | ribosome degradation (E. coli ribosome; listed as diethylene glycol linker): degradation visible at 15 mM concentration

O=C(N[C@H](CO)[C@H](O)c1ccc([N+](=O)[O-])cc1)C(Cl)Cl [chloramphenicol, Chloramphenicol]
ribosome degradation (E. coli ribosome): no degradation

CCOC(=O)c1ccccc1NC(=O)N1CCCN(Cc2ccsc2)CC1 [TDB]
binding affinity towards the pseudoknot (pseudoknot): lower binding affinity towards the pseudoknot

NCCOc1cc(C(=O)Nc2cc(OCCN)c3ccccc3n2)nc(C(=O)Nc2cc(OCCN)c3ccccc3n2)c1 [PDS, Pyridostatin]
EC50 [1]: 51 nM

CCOC(=O)c1ccccc1NC(=O)N1CCCN(Cc2csc(C)n2)CC1 [MTDB]
number of viral plaques (SARS-CoV-2 [2]): only showed decreased number of viral plaques when added before infection | frameshifting [3]: known to disrupt frameshifting in SARS-CoV-2 | degradation of RNA pseudoknot [4]: no degradation | solubility [5]: not soluble enough for KD determination using MST; also recorded: limited solubility | concentration with noticeable binding [6]: ≥ 187.5 µM | lung viral load (SARS-CoV-2 [7]): No differences in lung viral load | degradation of native SARS-CoV-2 RNA on agarose gel [8]: do not | virucidal effect (SARS-CoV-2 [9]): no virucidal effect was observed; also recorded: no virucidal effect on cell free virions | antiviral effect (viral replication, E gene and pseudoknot region RNA) (SARS-CoV-2 [10]): did not exhibit an antiviral effect; also recorded: did not inhibit viral replication | KD [11]: No appreciable binding was observed
